Each structure is given as a SMILES string. Read-outs that look alike come from different tables or passages of the source.

Series [1] relates to Human Dermal Fibroblasts adult (HDFa) cell line. Briefly: Cytotoxicity assay (MTT). Type of series: cell-based. Conditions: for viability of the cells / cytotoxic effect / LC50 / CC50: HDFa, MTT; for viability of the cells: 500 μM; for cytotoxic effect: 1–500 μM; for CC50: read-out: LC50 (the source's name). Here is the method:
The Human Dermal Fibroblasts adult (HDFa) cell line (Cascade Biologics) was used in all experiments. Unless otherwise specified, cells were grown in the Dulbecco’s modified Eagle’s medium (DMEM) supplemented with 10 % fetal bovine serum (FBS) and 1× antibiotic and antimycotic solutions (all purchased from Sigma) and incubated at 310.15 K in the humidified 5 % CO2 atmosphere.
HDFa cells were plated at 6 × 10^3 cells per well in a 96-well tissue culture plate and incubated overnight at 310.15 K to allow the attachment. The growth medium was substituted with the medium supplemented with tested complex compounds. After 24- or 48-h incubation, the cell viability was assessed using the MTT solution (3-(4,5-dimethylthiazol-2-yl)-2,5-diphenyltetrazolium bromide [Sigma]) at a concentration of 1 mg/mL prepared in the RPMI-1640 medium (Sigma). After 2-h incubation at 310.15 K, the amount of purple formazan product, dissolved in dimethylsulfoxide (DMSO) (Sigma), was quantified by measuring the absorbance at 550 nm.

A short description of series [2]: Potentiometric titration: stability constants of the complexes. Type of series: physicochemical. Here is the method:
Potentiometric titrations were performed in a 30-mL thermostated (298.15 ± 0.10 K) cell using the Cerko Lab System microtitration unit fitted with a 5-mL Hamilton’s syringe, a pH combined electrode (Schott–BlueLine 16 pH type) and a self-made measuring cell equipped with a magnetic stirrer. The temperature was controlled using the Lauda E100 circulation thermostat. In aqueous solutions, the electrode was calibrated according to IUPAC recommendations. In binary systems (10–50 % v/v DMSO:H2O), the electrode calibration was performed by the Gran’s method using the GLEE program. For this purpose, the HClO4 solution was titrated with tetrabutylammonium hydroxide (Bu4NOH) solution both at the same mole fraction of organic solvent (10–50 (v/v%) DMSO). The syringe was calibrated by a weight method. The double distilled water of conductivity approximately 0.18 μS/cm was used throughout for the preparation of aqueous solutions. Other reagents used in the experiments were purchased from Sigma-Aldrich. They were as follows: VOSO4 (≥99.99 % trace metals basis), Co(NO3)2·6H2O (ACS reagent, ≥99 %), Ni(NO3)2·6H2O (99.999 %) and 2,2′-oxydiacetic acid (H2ODA, 98 %). All the solutions were prepared immediately before measurements. The compositions of the titrand solutions used in the experiments were as follows: (a) 2 mM Ni^2+ (Co^2+ or VO^2+), 5 mM H2ODA, 5 mM HClO4, (b) 2.5 mM H2ODA (for binary systems). The solutions (Vo = 5.0 mL) were potentiometrically titrated with the standardized 0.098 M NaOH solution or with the standardized 0.025 M Bu4NOH solution (in binary systems) in the pH range from 2.5 to 11.0. The titrant was added to the titrand in increments of 0.01 mL, with a pause of 60 s. Each titration was repeated at least three times in order to check the reproducibility of the data. The stability constants of the complexes were determined using the Hyperquad2008 program. The concentration distribution of various complex species existing in the solution as a function of pH was obtained using the HySS program.
The equilibrium constants defined by Eqs. (1) and (2):1 pM+qL+rH=MpLqHr 2 βpqr=MpLqHr/M^pL^qH^r (where M is VO^2+, Co^2+ or Ni^2+, L denotes the oxydiacetate ion, H is the proton and p, q, r are stoichiometric coefficients for the reaction) were refined by least-squares calculations using the Hyperquad2008 (version 5.2.19) computer program. For the oxovanadium(IV) system, the formation of the hydroxo complexes of VO(IV) were taken into account in the calculations of the stability constants. The following formation constants were taken from the literature and were fixed: logβ 10–1 = −5.94, logβ 20–2 = −6.95 and logβ 10–3 = −18. The equilibrium models presented in Table 2 have given the best fitting of the calculated data to the experimental ones.

Series [3] deals with Human Dermal Fibroblasts adult (HDFa) cell line. Kind of series: Cytoprotective activity against H2O2 oxidative damage (MTT). Format: cell-based. Here is the method:
The Human Dermal Fibroblasts adult (HDFa) cell line (Cascade Biologics) was used in all experiments. Unless otherwise specified, cells were grown in the Dulbecco’s modified Eagle’s medium (DMEM) supplemented with 10 % fetal bovine serum (FBS) and 1× antibiotic and antimycotic solutions (all purchased from Sigma) and incubated at 310.15 K in the humidified 5 % CO2 atmosphere. Cells were plated at 2 × 10^3 cells per well of 96-well tissue culture plate. After an overnight incubation, cells were washed with DMEM without FBS and next treated with 1 mM hydrogen peroxide (H2O2) (Sigma) together with different concentrations of tested complex compounds or with 1 mM H2O2 alone to induce the oxidative damage to cells resulting in the necrotic death. Mixtures were prepared in the growth medium (DMEM) without FBS. Cells treated with the growth medium only were used as a control of normal viability. After 1-h incubation at 310.15 K, the medium was removed and cells were washed with the growth medium containing 10 % FBS to stop the H2O2 activity. Next, either the cell viability was assessed using the MTT solution (see previous paragraph) or additional incubation of cells in DMEM containing 10 % FBS for another 48 h was performed and then cells were tested for the viability (the MTT assay). The cytoprotective activity of complex compounds against the oxidative damage was calculated relatively to untreated control cells, not exposed to H2O2.

Where [4] appears, read: PT, 298.15 K, aqueous, hydroxo species.
The mark [5] stands for this setting: 1 mM H2O2 with complex 1 h, then additional 48-h incubation in growth medium.
The mark [6] stands for this setting: 1 mM H2O2 with complex, 1-h exposure.

With `O.O.O.O.O.O.O.O.O.O=C([O-])COCC(=O)[O-].O=C([O-])COCC(=O)[O-].[Ni+2].[Ni+2]` [Ni(ODA), [Ni(ODA)(H2O)3]·1.5H2O], the “viability of the cells” value in series [1] (24 h) is listed as “no less than 95%”; in series [1] (48 h), approximately 75%. In series [1] (24 h), the cytotoxic effect entry is given as “no significant cytotoxic effects”. In addition, the LC50 entry in series [1] (24-h exposure time) is “Immeasurable”. Moreover, the CC50 in series [1] (48-h exposure time) amounted to 1310 µM. In series [2] (PT, 298.15 K, aqueous), the “logβ 110 (species ML), stability constant” value (“logβ 110 (species ML)” below) was 3.52 (±0.02). For the same molecule, in series [2] (setting [4]), the “logβ 11–2 (species MLH−2)” value was −14.17 (±0.06). The “cytoprotective activity against oxidative damage” value (“cytoprotective activity” for short) in series [3] (setting [5]) and in series [3] (setting [6]) was “no influence on the viability of cells” each time.
For `O.O.O=C([O-])COCC(=O)[O-].[O]=[V+2]` [VO(ODA), [VO(ODA)(H2O)2]], the cytotoxic effect result in series [1] (24 h) is listed as “exhibits the cytotoxic effect”. Further, the CC50 in series [1] (24-h exposure time) was 296 µM; in series [1] (48-h exposure time), 87.5 µM. For the same molecule, the “logβ 110 (species ML)” value in series [2] (PT, 298.15 K, aqueous) is reported as 5.08 (±0.04). Further, the “logβ 11–2 (species MLH−2)” value in series [2] (setting [4]) was −6.45 (±0.04). For the same molecule, in series [2] (setting [4]), the “logβ 22–2 (species M2L2H−2)” value is listed as 1.65 (±0.15). Besides, in series [2] (species distribution M:L = 1:1 calculated from stability constants), the “pH at which hydroxo species predominate over the complex” value was more than 5.5. The “cytoprotective activity” value in series [3] (setting [5]) is “induces the cell death”; in series [3] (setting [6]), “to some extent, exhibits the cytoprotective activity”.
With `O.O.O.O=C(O)COCC(=O)O.[Co]` [Co(ODA), [Co(ODA)(H2O)2]·H2O], the LC25 result in series [1] is “Immeasurable”. Also, the LC75 entry in series [1] is reported as “Immeasurable”. In addition, the “viability of the cells” value in series [1] (24 h) is given as “no less than 95%”; in series [1] (48 h), “about 90%”. Moreover, the cytotoxic effect result in series [1] (24 h) is listed as “no significant cytotoxic effects”. The LC50 entry in series [1] (24-h exposure time) and in series [1] (48-h exposure time) was “Immeasurable” in each case. Besides, the “logβ 110 (species ML)” value in series [2] (PT, 298.15 K, aqueous) is 3.45 (±0.11). The “logβ 11–2 (species MLH−2)” value in series [2] (setting [4]) is given as −14.88 (±0.14). The viability of cells result in series [3] (1 mM H2O2 together with 500 μM complex, 1 h) was “ca. 100%”. In addition, the “cytoprotective activity” value in series [3] (setting [5]) was “grow and proliferate at similar levels to untreated control cells”; in series [3] (setting [6]), “highest dose- and time-dependent protective effect”.

The values are drawn from PMC4352194, “Physicochemical and Biological Properties of Oxovanadium(IV), Cobalt(II) and Nickel(II) Complexes with Oxydiacetate Anions” (Biological Trace Element Research, 2014).
